Measurements reported in PubChem BioAssay (NCI).
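These data come from cells grown in 96-well plates and exposed to compound for 48 hours at five concentrations. GI50: concentration for 50% inhibition of growth. TGI: concentration producing complete growth inhibition.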

How the values were obtained:
Test in all cases: NCI-60 cell line screen, 48 h
MOLT-4 leukemia = system: MOLT-4 leukemia
OVCAR-5 ovarian = system: OVCAR-5 ovarian
SK-MEL-28 melanoma = system: SK-MEL-28 melanoma
TK-10 renal = system: TK-10 renal
SW-620 colon = system: SW-620 colon
COLO 205 colon = system: COLO 205 colon
UACC-257 melanoma = system: UACC-257 melanoma
DU-145 prostate = system: DU-145 prostate
HL-60(TB) leukemia = system: HL-60(TB) leukemia
SF-539 CNS = system: SF-539 CNS
SR leukemia = system: SR leukemia
U251 CNS = system: U251 CNS
HOP-92 NSCLC = system: HOP-92 NSCLC
LOX IMVI melanoma = system: LOX IMVI melanoma
SF-295 CNS = system: SF-295 CNS
SNB-75 CNS = system: SNB-75 CNS
SK-MEL-2 melanoma = system: SK-MEL-2 melanoma
RXF 393 renal = system: RXF 393 renal
NCI-H460 lung = system: NCI-H460 lung
T-47D breast = system: T-47D breast
EKVX NSCLC = system: EKVX NSCLC
K-562 leukemia = system: K-562 leukemia
CAKI-1 renal = system: CAKI-1 renal
MDA-MB-435 = system: MDA-MB-435
SNB-19 CNS = system: SNB-19 CNS
A549 NSCLC = system: A549 NSCLC
MCF7 breast = system: MCF7 breast
RPMI-8226 leukemia = system: RPMI-8226 leukemia
A498 renal = system: A498 renal
MALME-3M melanoma = system: MALME-3M melanoma
OVCAR-4 ovarian = system: OVCAR-4 ovarian
HS 578T breast = system: HS 578T breast
OVCAR-8 ovarian = system: OVCAR-8 ovarian
SK-MEL-5 melanoma = system: SK-MEL-5 melanoma
NCI-H23 lung = system: NCI-H23 lung
PC-3 prostate = system: PC-3 prostate
HT29 colon = system: HT29 colon
IGROV1 ovarian = system: IGROV1 ovarian
HOP-62 NSCLC = system: HOP-62 NSCLC
MDA-MB-231 breast = system: MDA-MB-231 breast
786-0 renal = system: 786-0 renal
NCI-H522 lung = system: NCI-H522 lung
UACC-62 melanoma = system: UACC-62 melanoma
HCT-15 colon = system: HCT-15 colon
M14 melanoma = system: M14 melanoma
BT-549 breast = system: BT-549 breast
OVCAR-3 ovarian = system: OVCAR-3 ovarian
ACHN renal = system: ACHN renal
NCI-H226 lung = system: NCI-H226 lung
CCRF-CEM leukemia = system: CCRF-CEM leukemia
SK-OV-3 ovarian = system: SK-OV-3 ovarian
KM12 colon = system: KM12 colon
NCI/ADR-RES ovarian = system: NCI/ADR-RES ovarian
HCC-2998 colon = system: HCC-2998 colon
SF-268 CNS = system: SF-268 CNS

## COc1cc2c(cc1OCCCCCN1CCN(CCCCCOc3cc4c(cc3OC)C(=O)C3CCC[C@H]3C=N4)CC1)N=C[C@@H]1CCCC1C2=O (stereo not given in full)
MOLT-4 leukemia
  GI50: 2.55 µM
  TGI: 7 µM
OVCAR-5 ovarian
  GI50: 5.52 µM
  TGI: > 54.1 µM
SK-MEL-28 melanoma
  GI50: 19.4 µM
  TGI: > 100 µM
TK-10 renal
  GI50: 5.05 µM
  TGI: 14.6 µM
SW-620 colon
  GI50: 2.51 µM
  TGI: 46.6 µM
COLO 205 colon
  GI50: 2.67 µM
  TGI: 11.3 µM
UACC-257 melanoma
  GI50: 9.73 µM
  TGI: > 46 µM
DU-145 prostate
  GI50: 12.9 µM
  TGI: > 100 µM
HL-60(TB) leukemia
  GI50: 2.83 µM
  TGI: 7.15 µM
SF-539 CNS
  GI50: 9.82 µM
  TGI: > 79 µM
SR leukemia
  GI50: 2.97 µM
  TGI: 39.6 µM
U251 CNS
  GI50: 3.74 µM
  TGI: > 100 µM
HOP-92 NSCLC
  GI50: 3.22 µM
  TGI: > 42.6 µM
LOX IMVI melanoma
  GI50: 3.07 µM
  TGI: > 100 µM
SF-295 CNS
  GI50: 6.19 µM
  TGI: > 100 µM
SNB-75 CNS
  GI50: 16.1 µM
  TGI: > 94.4 µM
SK-MEL-2 melanoma
  GI50: 2.2 µM
  TGI: 5.26 µM
RXF 393 renal
  GI50: 2.23 µM
  TGI: 7.11 µM
NCI-H460 lung
  GI50: 3.38 µM
  TGI: > 94.2 µM
T-47D breast
  GI50: 6.89 µM
  TGI: > 100 µM
EKVX NSCLC
  GI50: 41.3 µM
  TGI: > 100 µM
K-562 leukemia
  GI50: 6.51 µM
  TGI: 28.4 µM
CAKI-1 renal
  GI50: 27.5 µM
  TGI: > 81.4 µM
MDA-MB-435
  GI50: 5.81 µM
  TGI: 39.9 µM
SNB-19 CNS
  GI50: > 39.4 µM
  TGI: > 100 µM
A549 NSCLC
  GI50: 10.7 µM
  TGI: > 51.8 µM
MCF7 breast
  GI50: 2.72 µM
  TGI: > 100 µM
RPMI-8226 leukemia
  GI50: 1.84 µM
  TGI: 11.9 µM
A498 renal
  GI50: 2.07 µM
  TGI: 5.48 µM
MALME-3M melanoma
  GI50: 23 µM
  TGI: 47.7 µM
OVCAR-4 ovarian
  GI50: 42 µM
  TGI: > 100 µM
HS 578T breast
  GI50: 5.63 µM
  TGI: > 68.7 µM
OVCAR-8 ovarian
  GI50: 7.89 µM
  TGI: > 37 µM
SK-MEL-5 melanoma
  GI50: 3.34 µM
  TGI: 21.6 µM
NCI-H23 lung
  GI50: 3.72 µM
  TGI: > 21.1 µM
PC-3 prostate
  GI50: 3.16 µM
  TGI: > 100 µM
HT29 colon
  GI50: 9.47 µM
  TGI: > 100 µM
IGROV1 ovarian
  GI50: 3.88 µM
  TGI: > 25 µM
HOP-62 NSCLC
  GI50: > 100 µM
  TGI: > 100 µM
MDA-MB-231 breast
  GI50: 3.84 µM
  TGI: > 100 µM
786-0 renal
  GI50: 1.51 µM
  TGI: 4.64 µM
NCI-H522 lung
  GI50: 1.76 µM
  TGI: > 100 µM
UACC-62 melanoma
  GI50: 2.35 µM
  TGI: 7.87 µM
HCT-15 colon
  GI50: 52.9 µM
  TGI: > 100 µM
M14 melanoma
  GI50: 17.5 µM
  TGI: 80.9 µM
BT-549 breast
  GI50: 10.9 µM
  TGI: > 86.8 µM
OVCAR-3 ovarian
  GI50: 10.1 µM
  TGI: > 93.4 µM
ACHN renal
  GI50: 18.9 µM
  TGI: > 100 µM
NCI-H226 lung
  GI50: 4.8 µM
  TGI: > 74.3 µM
CCRF-CEM leukemia
  GI50: 3.06 µM
  TGI: > 48.7 µM
SK-OV-3 ovarian
  GI50: 43.2 µM
  TGI: > 100 µM
KM12 colon
  GI50: 13.9 µM
  TGI: > 100 µM
NCI/ADR-RES ovarian
  GI50: > 100 µM
  TGI: > 100 µM
HCC-2998 colon
  GI50: 2.18 µM
  TGI: 6.02 µM
SF-268 CNS
  GI50: 3.51 µM
  TGI: > 100 µM
